{"source": "patent US12303592B2", "about": "“Formulations for parenteral delivery of compounds and uses thereof” (Wyeth, LLC, priority 2006, dated 2025)", "key": {"opioid receptors": {"system": "opioid receptors", "details": "found in U.S. Ser. No. 11/441,395 and 11/441,452; cited from earlier work"}, "[1]": {"details": "for inhibition of formation of 2′,2′ bis methylnaltrexone degradant / inhibition of formation of 7-dihydroxy-methylnaltrexone degradant: in presence of iron, 40° C. and room temperature", "method": "FIG. 1A and FIG. 1B: Effect of CaEDTA and NaEDTA on the formation of 2′,2-bis methylnaltrexone in the presence of iron at 40° C. (FIG. 1A) and room temperature, […] (FIG. 1B).\nFIGS. 2A, 2B, 2C, and 2D: Effect of CaEDTA on the formation of 7-dihydroxy methylnaltrexone in solutions. The effect of CaEDTA and NaEDTA on the formation of 7-dihydroxy methylnaltrexone in the presence of iron at 40° C. (FIG. 2A) and room temperature, 25° (FIG. 2B) was assessed. […] The effect of CaEDTA on the formation of 7-dihydroxy methylnaltrexone in solution following one month storage at room temperature (FIG. 2C) and at 40° C. (FIG. 2D) was assessed. The presence of CaEDTA reduced formation of 7-dihydroxy methylnaltrexone at either temperature.\nFIG. 3A and FIG. 3B: Effect of CaEDTA in methylnaltrexone solution on the formation of a methylnaltrexone degradant having an RRT 0.79 (“the 0.79 degradant”). The effect of CaEDTA and NaEDTA on the formation of the 0.79 degradant at room temperature, 25° (FIG. 3A) and at 40° C. (FIG. 3B) was assessed. Calcium EDTA was not effective at inhibiting formation of the 0.79 degradant, and may increase levels of degradant formation.\nInhibition of metal-catalyzed formation of 2,2′bis methylnaltrexone. […] We have found by HPLC analysis (Method B) the 2,2′bis methylnaltrexone degradant results in a peak having an RRT about 1.55. Fe^3+ is an ion that can get into the liquid formulation from several sources. For example, it can be leached from stainless steel process equipment, syringe needles, stoppers and amber vials. EDTA, as a metal chelating agent sequesters the available Fe^3+ in the solution, thereby preventing catalysis of the undesirable metal-catalyzed reactions. Methylnaltrexone solutions were prepared in 0.9% NaCl, in the presence of iron and various concentrations of sodium EDTA and calcium EDTA. Used throughout the experiments sodium EDTA is EDTA disodium dihydrate, and the terms sodium EDTA, EDTA disodium dihydrate, and NaEDTA are used interchangeably throughout. Used throughout the experiments calcium EDTA is calcium EDTA disodium, and the terms calcium EDTA, calcium EDTA disodium, and CaEDTA are used interchangeably throughout. Formation of 2,2′bis methylnaltrexone was assessed at room temperature as well as at 40° C. Addition of either sodium or calcium EDTA solution was effective at inhibiting formation of the 2,2′bis methylnaltrexone degradant.\nWe have found Ca^2+ chelating agent provides additional inhibition of formation of a 7-dihydroxy-methylnaltrexone degradant as compared to Na^2+ chelating agent. Methylnaltrexone solutions were prepared in 0.9% NaCl, in the presence of iron and various concentrations of sodium EDTA and calcium EDTA. Formation of 7-dihydroxy-methylnaltrexone was assessed at room temperature as well as at 40° C."}}, "data": [{"smiles": "C[N+]1(CC2CC2)CCC23c4c5ccc(O)c4OC2C(=O)CCC3(O)C1C5", "note": "(single isomer, unassigned) [R—N isomer of methylnaltrexone]", "values": [{"measurement": "opioid activity", "setting": "opioid receptors", "result": "opioid antagonist"}]}, {"smiles": "C[N@@+]1(CC2CC2)CC[C@]23c4c5ccc(O)c4OC2C(=O)CCC3(O)C1C5", "note": "(single isomer, unassigned) [S—N isomer of methylnaltrexone]", "values": [{"measurement": "opioid activity", "setting": "opioid receptors", "result": "opioid agonist"}]}, {"smiles": "O=C([O-])CN(CCN(CC(=O)[O-])CC(=O)[O-])CC(=O)[O-].[Ca+2].[Na+].[Na+]", "note": "[calcium EDTA, calcium EDTA disodium]", "values": [{"measurement": "inhibition of formation of 2′,2′ bis methylnaltrexone degradant", "setting": "[1]", "result": "effective inhibitors"}, {"measurement": "inhibition of formation of 7-dihydroxy-methylnaltrexone degradant", "setting": "[1]", "result": "effective inhibitor"}, {"measurement": "inhibition of formation of the 0.79 degradant", "setting": "[1]; room temperature and 40° C.", "result": "not effective"}]}, {"smiles": "O.O.O=C([O-])CN(CCN(CC(=O)[O-])CC(=O)O)CC(=O)O.[Na+].[Na+]", "note": "[sodium EDTA, EDTA disodium dihydrate]", "values": [{"measurement": "inhibition of formation of 2′,2′ bis methylnaltrexone degradant", "setting": "[1]", "result": "effective inhibitors"}, {"measurement": "inhibition of formation of 7-dihydroxy-methylnaltrexone degradant", "setting": "[1]", "result": "may even increase levels"}]}]}
